Measured values taken from patent US20240101572A1, “DIHYDROOXADIAZINONE COMPOUND AND PHARMACEUTICAL USE THEREOF” (Japan Tobacco Inc., priority 2022, published 2024).

Assays:
full-length human PLD1 = full-length human PLD1 (Homo sapiens (Human), UniProt Q13393); test: Evaluation of human PLD1 enzyme inhibitory activity (Amplex Red / choline oxidase fluorescence); format: biochemical; conditions: full-length human PLD1 enzyme; read-out: PLD1 IC50
Procedure, shortened: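 Fluorescence read-out couples choline to Amplex Red via choline oxidase and peroxidase after a 60 min room-temperature reaction. Enzyme: FLAG-tagged full-length human PLD1 from Expi293F cells, anti-FLAG purified; substrate diheptanoyl phosphatidylcholine; HEPES pH 7.5 assay buffer with 0.01% NP-40, 0.1% BSA, 5% DMSO final.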

full-length human PLD2 = full-length human PLD2 (Homo sapiens (Human), UniProt O14939); test: Evaluation of human PLD2 enzyme inhibitory activity (Amplex Red / choline oxidase fluorescence); format: biochemical; conditions: full-length human PLD2 enzyme; read-out: PLD2 IC50
Procedure, shortened: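 Released choline was read by Amplex Red fluorescence coupled to choline oxidase and HRP after a 60 min room-temperature reaction. Substrate was diheptanoyl phosphatidylcholine, added as a 6 mmol/L solution, and enzyme was FLAG-tagged full-length human PLD2 from Expi293F, added as a 6 nmol/L solution. Buffer was 50 mM HEPES pH 7.5 with 5% final DMSO.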

full-length human PLD2, sequence (O14939 whole entry): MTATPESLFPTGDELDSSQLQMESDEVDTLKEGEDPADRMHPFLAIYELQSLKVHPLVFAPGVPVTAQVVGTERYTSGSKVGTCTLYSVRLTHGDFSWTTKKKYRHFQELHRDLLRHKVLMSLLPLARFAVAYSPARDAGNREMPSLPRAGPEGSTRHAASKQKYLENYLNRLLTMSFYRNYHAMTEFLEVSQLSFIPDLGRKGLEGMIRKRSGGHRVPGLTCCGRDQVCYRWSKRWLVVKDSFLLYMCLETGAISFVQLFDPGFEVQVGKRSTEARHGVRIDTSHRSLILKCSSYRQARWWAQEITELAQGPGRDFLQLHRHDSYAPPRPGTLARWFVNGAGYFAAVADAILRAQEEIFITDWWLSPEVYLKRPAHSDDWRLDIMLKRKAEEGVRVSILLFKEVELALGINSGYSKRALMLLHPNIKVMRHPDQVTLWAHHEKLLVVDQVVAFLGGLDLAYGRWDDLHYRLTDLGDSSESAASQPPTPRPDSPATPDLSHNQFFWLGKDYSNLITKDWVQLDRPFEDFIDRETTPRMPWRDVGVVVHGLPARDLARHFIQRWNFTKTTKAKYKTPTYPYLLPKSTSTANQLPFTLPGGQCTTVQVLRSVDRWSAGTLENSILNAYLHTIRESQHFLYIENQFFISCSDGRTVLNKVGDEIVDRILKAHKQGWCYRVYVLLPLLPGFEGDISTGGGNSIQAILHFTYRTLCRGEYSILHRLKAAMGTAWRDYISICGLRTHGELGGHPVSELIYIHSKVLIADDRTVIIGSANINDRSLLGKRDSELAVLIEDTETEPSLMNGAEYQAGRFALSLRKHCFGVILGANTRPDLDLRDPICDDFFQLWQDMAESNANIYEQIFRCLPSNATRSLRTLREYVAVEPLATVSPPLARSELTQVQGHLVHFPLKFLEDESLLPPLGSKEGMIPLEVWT
full-length human PLD1, sequence (Q13393 other isoform, or with tags, fused parts or gaps): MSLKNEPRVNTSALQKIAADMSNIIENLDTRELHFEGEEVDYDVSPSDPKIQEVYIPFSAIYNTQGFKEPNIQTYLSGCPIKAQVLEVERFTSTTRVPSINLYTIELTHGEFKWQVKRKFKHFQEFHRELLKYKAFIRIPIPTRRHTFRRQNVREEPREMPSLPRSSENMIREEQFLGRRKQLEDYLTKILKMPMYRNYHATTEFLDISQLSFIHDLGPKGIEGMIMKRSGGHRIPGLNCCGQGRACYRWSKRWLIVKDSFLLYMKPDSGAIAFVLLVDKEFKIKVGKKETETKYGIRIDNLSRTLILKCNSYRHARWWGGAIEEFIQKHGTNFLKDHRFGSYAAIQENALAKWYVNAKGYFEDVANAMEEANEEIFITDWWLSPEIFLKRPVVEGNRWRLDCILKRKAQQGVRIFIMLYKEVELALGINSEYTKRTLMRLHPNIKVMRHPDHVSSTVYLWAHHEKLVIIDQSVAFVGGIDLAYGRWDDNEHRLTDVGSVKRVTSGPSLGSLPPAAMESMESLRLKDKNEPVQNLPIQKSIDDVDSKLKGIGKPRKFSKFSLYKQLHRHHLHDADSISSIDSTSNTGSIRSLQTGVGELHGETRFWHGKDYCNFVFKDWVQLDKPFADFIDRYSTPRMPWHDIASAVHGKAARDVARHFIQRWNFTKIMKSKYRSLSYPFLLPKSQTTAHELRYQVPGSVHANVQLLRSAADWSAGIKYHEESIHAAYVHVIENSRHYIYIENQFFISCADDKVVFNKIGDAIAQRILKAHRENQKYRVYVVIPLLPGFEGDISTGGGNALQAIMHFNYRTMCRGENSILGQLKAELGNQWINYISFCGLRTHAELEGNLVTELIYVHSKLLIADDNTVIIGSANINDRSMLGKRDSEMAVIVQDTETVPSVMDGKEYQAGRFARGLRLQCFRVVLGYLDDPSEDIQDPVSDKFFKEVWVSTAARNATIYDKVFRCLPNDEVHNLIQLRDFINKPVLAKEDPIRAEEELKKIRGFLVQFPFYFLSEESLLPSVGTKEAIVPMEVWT

C[C@@H](C[C@H]1CC[C@]2(CC1)OC(=O)NN=C2c1ccc(F)cc1I)NC(=O)C(=O)NC1CC1 [Example 177] gave an IC50 (full-length human PLD1) of 10 nM and an IC50 (full-length human PLD2) of less than 10 nM.

CNC(=O)C(=O)N[C@@H](C)C[C@H]1CC[C@]2(CC1)OC(=O)NN=C2c1ccc(S(=O)(=O)C(C)C)cc1Br [Example 66] showed an IC50 (full-length human PLD1) of 16 nM and an IC50 (full-length human PLD2) of less than 10 nM.

C[C@@H](C[C@H]1CC[C@]2(CC1)OC(=O)NN=C2c1ccc(OC(F)F)cc1Br)NC(=O)c1cc(Cl)n[nH]1 [Example 144] showed an IC50 (full-length human PLD1) of 11 nM and an IC50 (full-length human PLD2) of less than 10 nM.

In the case of C[C@@H](C[C@H]1CC[C@]2(CC1)OC(=O)NN=C2c1cc(OC(F)(F)F)ccc1Br)NC(=O)c1cnn(C)c1 [Example 303], the IC50 (full-length human PLD1) is reported as 11 nM and the IC50 (full-length human PLD2) is reported as less than 10 nM.

CNC(=O)C(=O)N[C@@H](C)CN1CC[C@@]2(C[C@H]1C)OC(=O)NN=C2c1ccc(C#N)cc1Cl [Example 233] was tested, and the IC50 (full-length human PLD1) was 1860 nM and the IC50 (full-length human PLD2) was 1800 nM.

With C[C@@H](C[C@H]1CC[C@]2(CC1)OC(=O)NN=C2c1ccc(F)cc1Br)NC(=O)N1CCC2(CC2)C1 [Example 282] the IC50 (full-length human PLD1) was 97 nM and the IC50 (full-length human PLD2) was 146 nM.

Work on CNC(=O)C(=O)N[C@@H](C)CN1CCC2(CC1)OC(=O)NN=C2c1cccc(C(F)(F)F)c1Br [Example 2-051] yielded an IC50 (full-length human PLD1) of 25 nM and an IC50 (full-length human PLD2) of less than 10 nM.

CNC(=O)C(=O)N[C@@H](C)C[C@]1(O)CC[C@@]2(CC1)OC(=O)NN=C2c1ccc(F)cc1Br [Example 321] gave an IC50 (full-length human PLD1) of 42 nM and an IC50 (full-length human PLD2) of less than 10 nM.

With Cc1cc(C(=O)N[C@@H](C)CN2CCC3(CC2)OC(=O)NN=C3c2ccc(C#N)cc2Br)on1 [Example 2-062] the IC50 (full-length human PLD1) was 25 nM and the IC50 (full-length human PLD2) was 25 nM.

For C[C@@H](CN1CCC2(CC1)OC(=O)NN=C2c1cc(C#N)ccc1Br)NC(=O)C1CCCO1 (mixture of isomers) [Example 2-048], the IC50 (full-length human PLD1) was 644 nM and the IC50 (full-length human PLD2) was 1010 nM.

In the case of Cc1cc(C(=O)N[C@@H](C)CN2CC[C@@]3(C[C@H]2C)OC(=O)NN=C3c2ccc(C#N)cc2Cl)[nH]n1 [Example 232], the IC50 (full-length human PLD1) is reported as 2580 nM and the IC50 (full-length human PLD2) is reported as 2130 nM.

C[C@@H](C[C@H]1CC[C@]2(CC1)OC(=O)NN=C2c1ccc(F)cc1Br)NC(=O)C1CCC(=O)N1 (mixture of isomers) [Example 18] showed an IC50 (full-length human PLD1) of 852 nM and an IC50 (full-length human PLD2) of 157 nM.

C[C@@H](C[C@H]1CC[C@]2(CC1)OC(=O)NN=C2c1cc(C(C)(C)O)ccc1Br)NC(=O)C(=O)NC1CC1 [Example 2-045] showed an IC50 (full-length human PLD1) of 18 nM and an IC50 (full-length human PLD2) of less than 10 nM.

In the case of CNC(=O)C(=O)N[C@@H](C)CN1CCC2(CC1)OC(=O)NN=C2c1cc(C(=O)OC)ccc1Br [Example 2-033], the IC50 (full-length human PLD1) is reported as 35 nM and the IC50 (full-length human PLD2) is reported as less than 10 nM.

Work on CC(=O)C(=O)N[C@@H](C)C[C@H]1CC[C@]2(CC1)OC(=O)NN=C2c1ccc(F)cc1Br [Example 30] yielded an IC50 (full-length human PLD1) of 123 nM and an IC50 (full-length human PLD2) of 153 nM.

Work on CNC(=O)C(=O)N[C@@H](C)C[C@H]1CC[C@]2(CC1)OC(=O)NN=C2c1cnc(N2C[C@H]3C[C@@H]2CO3)cc1Cl [Example 243] yielded an IC50 (full-length human PLD1) of 24 nM and an IC50 (full-length human PLD2) of less than 10 nM.

CNC(=O)C(=O)N[C@@H](C)CN1CCC2(CC1)OC(=O)NN=C2c1cc(Br)c(F)cc1Cl [Example 2-015] gave an IC50 (full-length human PLD1) of 26 nM and an IC50 (full-length human PLD2) of 12 nM.

C[C@@H](C[C@H]1CC[C@]2(CC1)OC(=O)NN=C2c1ccc(F)cc1Br)NC(=O)c1ccccc1 [Example 40] gave an IC50 (full-length human PLD1) of 13 nM and an IC50 (full-length human PLD2) of less than 10 nM.

Molecule CNC(=O)C(=O)N[C@@H](C)C[C@H]1CC[C@]2(CC1)OC(=O)NN=C2c1nccn1CC1CC1 [Example 82] has an IC50 (full-length human PLD1) of 421 nM and an IC50 (full-length human PLD2) of 358 nM.

In the case of Cc1cc(C(=O)N[C@@H](C)C[C@H]2CC[C@]3(CC2)OC(=O)NN=C3c2ccc(C#N)cc2Cl)[nH]n1 [Example 176], the IC50 (full-length human PLD1) is reported as 29 nM and the IC50 (full-length human PLD2) is reported as 29 nM.

With CNC(=O)C(=O)N[C@@H](C)C[C@H]1CC[C@]2(CC1)OC(=O)NN=C2c1ccc(OCC(F)(F)F)cc1Br [Example 86] the IC50 (full-length human PLD1) was 13 nM and the IC50 (full-length human PLD2) was less than 10 nM.

In the case of Cc1cc(F)ccc1C1=NNC(=O)O[C@]12CC[C@@H](C[C@H](C)NC(=O)N1CCCC1)CC2 [Example 136], the IC50 (full-length human PLD1) is reported as 155 nM and the IC50 (full-length human PLD2) is reported as 170 nM.

Molecule C[C@@H](CN1CCC2(CC1)OC(=O)NN=C2c1ccc(C#N)cc1Br)NC(=O)c1cn(C)cn1 [Example 2-060] has an IC50 (full-length human PLD1) of 27 nM and an IC50 (full-length human PLD2) of 11 nM.

Work on C[C@@H](C[C@H]1CC[C@]2(CC1)OC(=O)NN=C2c1cc(C#N)ccc1Br)NC(=O)c1ccn(C)n1 [Example 2-070] yielded an IC50 (full-length human PLD1) of 68 nM and an IC50 (full-length human PLD2) of 38 nM.

Work on CNC(=O)C(=O)N[C@@H](C)C[C@H]1CC[C@]2(CC1)OC(=O)NN=C2c1cnc(C(C)(C)O)cc1C [Example 185] yielded an IC50 (full-length human PLD1) of 68 nM and an IC50 (full-length human PLD2) of 64 nM.

CNC(=O)C(=O)N[C@@H](C)C[C@H]1CC[C@]2(CC1)OC(=O)NN=C2c1cnc(N2CCC2)cc1C [Example 159] showed an IC50 (full-length human PLD1) of 28 nM and an IC50 (full-length human PLD2) of less than 10 nM.
